For this test, the target named is T1, cholesteryl ester transfer protein (Homo sapiens, UniProt P11597).
T1 construct: As a source of cholesteryl ester transfer protein, plasma from healthy humans was used; from tissue; host or cells: plasma from healthy humans
T1 sequence (P11597 18-493): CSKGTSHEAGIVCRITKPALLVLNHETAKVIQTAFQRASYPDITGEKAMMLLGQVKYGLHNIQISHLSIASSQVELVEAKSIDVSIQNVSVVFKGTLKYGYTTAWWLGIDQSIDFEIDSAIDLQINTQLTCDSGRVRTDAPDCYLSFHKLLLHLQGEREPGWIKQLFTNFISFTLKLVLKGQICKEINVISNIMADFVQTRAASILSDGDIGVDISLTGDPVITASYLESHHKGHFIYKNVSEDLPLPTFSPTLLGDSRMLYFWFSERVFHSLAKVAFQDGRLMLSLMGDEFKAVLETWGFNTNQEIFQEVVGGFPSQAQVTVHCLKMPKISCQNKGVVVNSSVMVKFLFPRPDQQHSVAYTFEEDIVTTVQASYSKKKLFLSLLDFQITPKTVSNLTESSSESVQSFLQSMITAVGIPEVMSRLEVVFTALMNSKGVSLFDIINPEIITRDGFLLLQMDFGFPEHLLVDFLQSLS
Kind of test: In vitro test for the ability to inhibit cholesteryl ester transfer. It is filed as biochemical. Particulars: [3H]-cholesteryl oleate transfer from rHDL-agarose to LDL; human plasma as CETP source; 37° C.; 16-10000 nM, duplicate. The text has this: In Vitro Test for the Ability to Inhibit Cholesteryl Ester Transfer
1. Preparation of Cholesteryl Ester Donor
In order to prepare a cholesteryl ester donor to be used in the test, a radiolabeled recombinant HDL containing [^3H]-cholesteryl oleate (GE healthcare, TRK886, 3.5 μCi/mg of apoA-1) and apoA-1 was synthesized. Then, rHDL-agarose obtained by immobilizing the recombinant HDL with CNBr-activated Sepharose 4B resin (Amersham Biosciences, Sweden) was used in the test.
2. Cholesteryl Ester Transfer Test
As a source of cholesteryl ester transfer protein, plasma from healthy humans was used, and as cholesteryl ester receptor, LDL from healthy humans was used. Each of test compounds was added to be final concentrations of 16, 80, 400, 2000 and 10000 nM and tested in duplicate. In order to test cholesteryl ester transfer, 20 μl of plasma, 50 μl of LDL (0.25 mg/ml) and 50 μl of rHDL-agarose (0.25 mg/ml) were mixed with each other, and a solution of each test compound was added thereto and reacted thereto at 37° C. Then, the reaction solution was centrifuged at 4° C. for 3 minutes, thereby the reaction was stopped. 150 μl of the supernatant was transferred into a 96-well plate for radioactivity measurement, and the radioactivity thereof was measured with a beta-ray detector.
3. Statistical Processing
The ratio of [^3H]-cholesteryl oleate transferred from HDL to LDL was determined, and based on the determined ratio, the IC50 value of each compound was determined using GraphPad Prism 5.0.

The structures appear in SMILES notation.

What is called IC50 is the concentration that gives 50% inhibition. Regarding `COc1cc(F)c(N(C)C(C)=O)cc1C1=C(CN2C(=O)O[C@H](c3cc(C(F)(F)F)cc(C(F)(F)F)c3)[C@@H]2C)CC(C)(C)CC1` [Compound 215, N-(5-(2-(((4S,5R)-5-(3,5-bis(trifluoromethyl)phenyl)-4-methyl-2-oxooxazolidin-3-yl)methyl)-4,4-dimethylcyclohex-1-enyl)-2-fluoro-4-methoxyphenyl)-N-methylacetamide], the IC50 came out at 20 nM. `COc1ccc(Cl)cc1C1=C(CN2C(=O)O[C@H](c3cc(C(F)(F)F)cc(C(F)(F)F)c3)[C@@H]2C)CC(C)(C)CC1` [Compound 353, (4S,5R)-5-(3,5-bis(trifluoromethyl)phenyl)-3-((2-(5-chloro-2-methoxyphenyl)-5,5-dimethylcyclohex-1-enyl)methyl)-4-methyloxazolidin-2-one] had an IC50 of 30 nM. For `COC(=O)CCc1ccc(OC)c(C2=C(CN3C(=O)O[C@H](c4cc(C(F)(F)F)cc(C(F)(F)F)c4)[C@@H]3C)CC(C)(C)CC2)c1` [Compound 272, methyl 3-(3-(2-(((4S,5R)-5-(3,5-bis(trifluoromethyl)phenyl)-4-methyl-2-oxooxazolidin-3-yl)methyl)-4,4-dimethylcyclohex-1-enyl)-4-methoxyphenyl)propanoate], the midpoint of inhibition, the IC50, lay at 222 nM. The same measure for `COC(=O)CC(C)(C)c1ccc(OC)c(C2=C(CN3C(=O)O[C@H](c4cc(C(F)(F)F)cc(C(F)(F)F)c4)[C@@H]3C)CC(C)(C)CC2)c1` [Compound 308, methyl 3-(3-(2-(((4S,5R)-5-(3,5-bis(trifluoromethyl)phenyl)-4-methyl-2-oxooxazolidin-3-yl)methyl)-4,4-dimethylcyclohex-1-enyl)-4-methoxyphenyl)-3-methylbutanoate]: 7 nM; for `COc1cc(C)c(N(C)C(C)=O)cc1C1=C(CN2C(=O)O[C@H](c3cc(C(F)(F)F)cc(C(F)(F)F)c3)[C@@H]2C)CC(C)(C)CC1` [Compound 249, N-(5-(2-(((4S,5R)-5-(3,5-bis(trifluoromethyl)phenyl)-4-methyl-2-oxooxazolidin-3-yl)methyl)-4,4-dimethylcyclohex-1-enyl)-4-methoxy-2-methylphenyl)-N-methylacetamide]: 1 nM; for `COc1ccc(C(C)C)cc1C1=C(CN2C(=O)O[C@H](c3cc(C(F)(F)F)cc(C(F)(F)F)c3)[C@@H]2C)CCC(C)(C)C1` [Compound 44, (4S,5R)-5-(3,5-bis(trifluoromethyl)phenyl)-3-((2-(5-isopropyl-2-methoxyphenyl)-4,4-dimethylcyclohex-1-enyl)methyl)-4-methyloxazolidin-2-one]: 430 nM.

On to `COc1ccc(NC(C)=O)cc1C1=C(CN2C(=O)O[C@H](c3cc(C(F)(F)F)cc(C(F)(F)F)c3)[C@@H]2C)CC(C)(C)CC1` [Compound 110, N-(3-(2-(((4S,5R)-5-(3,5-bis(trifluoromethyl)phenyl)-4-methyl-2-oxooxazolidin-3-yl)methyl)-4,4-dimethylcyclohex-1-enyl)-4-methoxyphenyl)acetamide], for which half-maximal inhibition (IC50) required 230 nM. The same measure for `COc1ccc(C(OC)(C(F)(F)F)C(F)(F)F)cc1C1=C(CN2C(=O)O[C@H](c3cc(C(F)(F)F)cc(C(F)(F)F)c3)[C@@H]2C)CC(C)(C)CC1` [Compound 182, (4S,5R)-5-(3,5-bis(trifluoromethyl)phenyl)-3-((2-(5-(1,1,1,3,3,3-hexafluoro-2-methoxypropan-2-yl)-2-methoxyphenyl)-5,5-dimethylcyclohex-1-enyl)methyl)-4-methyloxazolidin-2-one]: 50 nM. The same measure for `COc1cc(F)c(C(C)C)cc1C1=C(CN2C(=O)O[C@H](c3cc(C(F)(F)F)cc(C(F)(F)F)c3)[C@@H]2C)CN(C(F)(F)F)CC1` [Compound 245, (4S,5R)-5-(3,5-bis(trifluoromethyl)phenyl)-3-((4-(4-fluoro-5-isopropyl-2-methoxyphenyl)-1-(trifluoromethyl)-1,2,5,6-tetrahydropyridin-3-yl)methyl)-4-methyloxazolidin-2-one]: 810 nM.
